Assay results as given in the supplement of paper PMC13380429.

Legend:
Settings in all cases: 72 h
HepG2 [1] = assay: drug sensitivity score (DSS) for viability; higher = more toxic; extreme values may be limits of the assay
Vero E6 [2] = assay: as above
Calu-3 [3] = assay: as above
U2OS [4] = assay: as above
Caco-2 [5] = assay: as above
HepG2 [6] = assay: relative viability EC50 (midpoint between 100% and the lowest measured viability); higher = less toxic
Vero E6 [7] = assay: as above
Calu-3 [8] = assay: as above
U2OS [9] = assay: as above
Caco-2 [10] = assay: as above
HepG2 [11] = assay: cell viability relative to DMSO; higher = less toxic
Vero E6 [12] = assay: as above
Calu-3 [13] = assay: as above
U2OS [14] = assay: as above
Caco-2 [15] = assay: as above

| SMILES | drug sensitivity score (HepG2 [1]) | drug sensitivity score (Vero E6 [2]) | drug sensitivity score (Calu-3 [3]) | drug sensitivity score (U2OS [4]) | drug sensitivity score (Caco-2 [5]) | relative viability EC50 (HepG2 [6]) [µM] | relative viability EC50 (Vero E6 [7]) [µM] | relative viability EC50 (Calu-3 [8]) [µM] | relative viability EC50 (U2OS [9]) [µM] | relative viability EC50 (Caco-2 [10]) [µM] | cell viability (HepG2 [11]; 1 nM) [%] | cell viability (HepG2 [11]; 10 nM) [%] | cell viability (HepG2 [11]; 100 nM) [%] | cell viability (HepG2 [11]; 1000 nM) [%] | cell viability (HepG2 [11]; 10000 nM) [%] | cell viability (Vero E6 [12]; 1 nM) [%] | cell viability (Vero E6 [12]; 10 nM) [%] | cell viability (Vero E6 [12]; 100 nM) [%] | cell viability (Vero E6 [12]; 1000 nM) [%] | cell viability (Vero E6 [12]; 10000 nM) [%] | cell viability (Calu-3 [13]; 1 nM) [%] | cell viability (Calu-3 [13]; 10 nM) [%] | cell viability (Calu-3 [13]; 100 nM) [%] | cell viability (Calu-3 [13]; 1000 nM) [%] | cell viability (Calu-3 [13]; 10000 nM) [%] | cell viability (U2OS [14]; 1 nM) [%] | cell viability (U2OS [14]; 10 nM) [%] | cell viability (U2OS [14]; 100 nM) [%] | cell viability (U2OS [14]; 1000 nM) [%] | cell viability (U2OS [14]; 10000 nM) [%] | cell viability (Caco-2 [15]; 1 nM) [%] | cell viability (Caco-2 [15]; 10 nM) [%] | cell viability (Caco-2 [15]; 100 nM) [%] | cell viability (Caco-2 [15]; 1000 nM) [%] | cell viability (Caco-2 [15]; 10000 nM) [%] |
| --- | --- | --- | --- | --- | --- | --- | --- | --- | --- | --- | --- | --- | --- | --- | --- | --- | --- | --- | --- | --- | --- | --- | --- | --- | --- | --- | --- | --- | --- | --- | --- | --- | --- | --- | --- |
| CN1C(=O)C(Cc2c[nH]c3ccccc23)NC1=S (stereo not given) [necrostatin-1] | 0 | 0 | 0 | 0 | 0 | > 10 | > 10 | > 10 | > 10 | > 10 | 110 | 94.5 | 98.1 | 94.6 | 90.6 | 95.8 | 99 | 101 | 99.8 | 103 | 93.9 | 92 | 90.3 | 96.2 | 99 | 93.6 | 99.2 | 97.7 | 98.6 | 95.1 | 97.7 | 95.8 | 107 | 110 | 100 |
| CCOC(=O)c1ccc(N(C)c2csc(-c3ccccc3)n2)cc1 [neuropathiazol] | 0 | 0 | 0 | 0 | 0 | > 10 | > 10 | > 10 | > 10 | > 10 | 86.2 | 97.3 | 103 | 107 | 93.2 | 108 | 103 | 96.2 | 101 | 96.3 | 92.4 | 97.2 | 108 | 110 | 97.3 | 101 | 97.2 | 98.8 | 99.5 | 99.3 | 92.9 | 94.1 | 80.2 | 97.3 | 104 |
| COC(=O)C1=C(C)NC(C)=C(C(=O)OCCN(C)Cc2ccccc2)C1c1cccc([N+](=O)[O-])c1 (stereo not given) [nicardipine] | 0 | 0 | 0 | 0 | 1.9 | > 10 | > 10 | > 10 | > 10 | > 10 | 91.6 | 100 | 141 | 109 | 95.4 | 93.2 | 106 | 98.2 | 103 | 96.9 | 91.7 | 91.5 | 94.1 | 90.2 | 90.2 | 96.5 | 103 | 95.5 | 98.1 | 91.3 | 102 | 120 | 97.9 | 84.1 | 84.8 |
| Cc1cc2c(s1)Nc1ccccc1N=C2N1CCN(C)CC1 [olanzapine] | 0 | 0 | 0 | 0 | 0 | > 10 | > 10 | > 10 | > 10 | > 10 | 118 | 110 | 121 | 98.5 | 106 | 96.4 | 96.8 | 96 | 92.7 | 104 | 99 | 102 | 104 | 104 | 108 | 93.1 | 99 | 95.2 | 99.6 | 102 | 97.8 | 91.5 | 98.1 | 99.1 | 103 |
| CCCc1nc(C(C)(C)O)c(C(=O)O)n1Cc1ccc(-c2ccccc2-c2nnn[nH]2)cc1 [olmesartan] | 0 | 0 | 0 | 0 | 0 | > 10 | > 10 | > 10 | > 10 | > 10 | 93.8 | 108 | 93.3 | 98.7 | 99.6 | 98.8 | 102 | 97.2 | 96.9 | 92.7 | 105 | 101 | 102 | 98 | 101 | 98.2 | 96.5 | 98.7 | 93.5 | 99.6 | 93 | 95.5 | 91.8 | 90.9 | 99.3 |
| CCOC(=O)C1=C[C@@H](OC(CC)CC)[C@H](NC(C)=O)[C@@H](N)C1 [oseltamivir-phosphate] | 0 | 0 | 0 | 0 | 0 | > 10 | > 10 | > 10 | > 10 | > 10 | 107 | 98.6 | 98 | 106 | 107 | 95.4 | 93.2 | 99.1 | 92.4 | 103 | 99.4 | 96.9 | 104 | 103 | 106 | 93.4 | 104 | 97.9 | 97.6 | 102 | 79.7 | 92.2 | 92.6 | 95.9 | 94 |
| COc1ccc(COc2cc3oc(=O)c4cc(C(C)O)ccc4c3cc2OC)cc1 (stereo not given) [palomid-529] | 0 | 0 | 0 | 0 | 0.3 | > 10 | > 10 | > 10 | > 10 | > 10 | 97.3 | 100 | 101 | 99.6 | 102 | 101 | 100 | 99 | 100 | 99.7 | 111 | 98.9 | 84.8 | 101 | 96.2 | 96.3 | 105 | 94.4 | 94 | 99.8 | 107 | 94.1 | 96.4 | 85.6 | 93.7 |
| Cc1cc(NC(=O)NCCN2CCC(O)(Cc3ccccc3)CC2)c2ccccc2n1 [palosuran] | 0 | 0 | 0 | 0 | 0 | > 10 | > 10 | > 10 | > 10 | > 10 | 102 | 110 | 96.3 | 99.7 | 92.5 | 104 | 106 | 99.4 | 104 | 102 | 95.3 | 91.9 | 103 | 100 | 89.4 | 99.3 | 94.9 | 98 | 96.5 | 103 | 99.5 | 93.1 | 88.3 | 99.4 | 104 |
| O=C(Oc1ccccc1)c1ccccc1O [phenyl-salicylate] | 0 | 0 | 0 | 0 | 0 | > 10 | > 10 | > 10 | > 10 | > 10 | 100 | 104 | 97.1 | 110 | 106 | 105 | 99.8 | 105 | 98.4 | 104 | 103 | 101 | 93.6 | 104 | 94.9 | 97.7 | 100 | 97.5 | 102 | 99.4 | 95.3 | 93.7 | 98.1 | 97.1 | 97.6 |
| NC(=O)CN1CCCC1=O [piracetam] | 0 | 0 | 0 | 0 | 0 | > 10 | > 10 | > 10 | > 10 | > 10 | 92.1 | 103 | 98 | 98.5 | 105 | 93.3 | 98.3 | 91.7 | 93.3 | 92 | 110 | 97.7 | 112 | 109 | 97.9 | 100 | 102 | 100 | 97.7 | 102 | 102 | 91.2 | 98.7 | 96.6 | 102 |
| CC12CCC(C(=O)N(CCCCN3CCN(c4ccccn4)CC3)C1=O)C2(C)C (stereo not given) [piricapiron] | 0 | 0 | 0.6 | 0 | 0 | > 10 | > 10 | > 10 | > 10 | > 10 | 106 | 101 | 101 | 102 | 97.6 | 97.2 | 99.8 | 101 | 93.5 | 104 | 100 | 105 | 101 | 93.2 | 85.9 | 101 | 103 | 99.1 | 101 | 95.6 | 87.3 | 99.7 | 96.5 | 98.1 | 93 |
| Cc1c(C(=O)NN2CCCCC2)nn(-c2ccc(Cl)cc2Cl)c1-c1ccc(Cl)cc1 [rimonabant] | 0 | 0 | 0 | 0 | 0.8 | > 10 | > 10 | > 10 | > 10 | > 10 | 97.6 | 94.1 | 105 | 103 | 88.3 | 92.4 | 95 | 88 | 93.5 | 101 | 101 | 93.6 | 89.1 | 96.8 | 99.2 | 95.6 | 95.8 | 98.1 | 95.4 | 92.7 | 98.7 | 91.3 | 97.7 | 90.5 | 81.1 |
